Source: US9452985B2, “Tau imaging probe” (GE Healthcare Limited, priority 2010, dated 2016)
Structures can show the parent of a compound that is named as a salt.

Tested on: neurofibrillary tangles
Experiment: Staining test on brain section of Alzheimer's disease patients
Type: binding, human
Settings: 100 μM solution in 50% ethanol, 10 minutes, fluorescence microscope
Source text: The procedure of staining test on the compounds of the present invention on the brain section of Alzheimer's disease patients is described below:
(1) We used the brain specimens of the temporal lobe or hippocampus from patients who were definitely diagnosed as having Alzheimer's disease pathology. The specimens were obtained from Choju Medical Institute, Fukushimura Hospital, our collaborating research institute, and the consent for use for research purposes was obtained from the patients' bereaved family (Fukushimura Hospital, Ethics Committee Approval No. 20).
(2) The paraffin-embedded brain tissue was sliced to 6 or 8 μm thickness, extended on a slide glass, and dried. The paraffinized brain section was deparaffinized by washing with xylene for 10 minutes×2, 100% ethanol for 5 minutes×2, 90% ethanol for 5 minutes, and running water for 10 minutes in this order.
(3) As a pretreatment for staining with the compounds of the present invention, the treatment to remove autofluorescence with lipofuscin was performed. First, the paraffinized brain section was immersed in 0.25% KMnO4 solution for 20 minutes. It was washed with PBS for 2 minutes twice, immersed in a 0.1% K2S2O5/oxalic acid solution for approximately 5 minutes, and further washed with PBS for 2 minutes 3 times.
(4) From 100 μM solution of the compounds of the present invention dissolved in 50% ethanol, approximately 150 μl was dropped on the section to react for 10 minutes. After being immersed in tap water 5 times, it was mounted with Flour Save Reagent (Calbiochem) and examined with a fluorescence microscope (Nikon, ECLIPSE 80i). The images were taken with a digital camera (Nikon, Dxin1200F or Photometrics, Cool SNAP ES).

| SMILES | binding to neurofibrillary tangles in the brain section of Alzheimer's disease patients (staining test) |
| --- | --- |
| Nc1ccc(-c2ccc3ccc(OC(CO)CF)cc3n2)cn1 (centres unmarked) [THK-932, 2-(2-aminopyrid-5-yl)-7-(1-fluoromethyl-2-hydroxyethoxy)quinoline] | bind to neurofibrillary tangles specifically and selectively |
| CCN(CC)c1ccc(-c2ccc3cc(OC(CO)CF)ccc3n2)cc1 (centres unmarked) [THK-5035, 2-(4-diethylaminophenyl)-6-(1-fluoromethyl-2-hydroxy)quinoline] | bind to neurofibrillary tangles specifically and selectively |
| CCN(CC)c1ccc(-c2ccc3ccc(OCC(O)CF)cc3n2)cc1 (centres unmarked) [THK-5038, 2-(4-diethylaminophenyl)-7-(2-fluoromethyl-2-hydroxyethoxy)quinoline] | bind to neurofibrillary tangles specifically and selectively |
| CCN(CC)c1ccc(-c2ccc3ccc(OC(CO)CF)cc3n2)cc1 (centres unmarked) [THK-5058, 2-(4-diethylaminophenyl)-7-(1-fluoromethyl-2-hydroxyethoxy)quinoline] | bind to neurofibrillary tangles specifically and selectively |
| CCN(CC)c1ccc(-c2cc(OCC(O)CF)c3ccccc3n2)cc1 (centres unmarked) [THK-5059, 2-(4-diethylaminophenyl)-4-(3-fluoro-2-hydroxypropoxy)quinoline] | bind to neurofibrillary tangles specifically and selectively |
| CCN(CC)c1ccc(-c2ccc3c(OC(CO)CF)cccc3n2)cc1 (centres unmarked) [THK-5064, 2-(4-diethylaminophenyl)-5-(1-fluoromethyl-2-hydroxyethoxy)quinoline] | bind to neurofibrillary tangles specifically and selectively |
| CCN(CC)c1ccc(-c2nc3ccccc3cc2OC(CO)CF)cc1 (centres unmarked) [THK-5065, 2-(4-diethylaminophenyl)-3-(1-fluoromethyl-2-hydroxyethoxy)quinoline] | bind to neurofibrillary tangles specifically and selectively |
| CCN(CC)c1ccc(-c2ccc3cccc(OCC(O)CF)c3n2)cc1 (centres unmarked) [THK-5066, 2-(4-diethylaminophenyl)-8-[(3-fluoro-2-hydroxy)propoxy]quinoline] | bind to neurofibrillary tangles specifically and selectively |
| CN(C)c1ccc(-c2ccc3ccc(OC(CO)CF)cc3n2)cc1 (centres unmarked) [THK-5071, 2-(4-fluoromethyl-2-hydroxyethoxy)-2-(4-dimethylaminophenyl)quinoline] | bind to neurofibrillary tangles specifically and selectively |
| Nc1ccc2ccc(-c3ccc(F)cc3)nc2c1 [THK-5075, 7-amino-2-(4-fluorophenyl)quinoline] | bind to neurofibrillary tangles specifically and selectively |
| CN(C)c1ccc2ccc(-c3ccc(F)cc3)nc2c1 [THK-5076, 2-(4-fluorophenyl)-7-dimethylaminoquinoline] | bind to neurofibrillary tangles specifically and selectively |
| CNc1ccc(-c2ccc3ccc(OC(CO)CF)cc3n2)cc1 (centres unmarked) [THK-5077, 7-(1-fluoromethyl-2-hydroxyethoxy)-2-(4-methylaminophenyl)quinoline] | bind to neurofibrillary tangles specifically and selectively |
| Nc1cccc2nc(-c3ccc(F)cc3)ccc12 [THK-5079, 5-amino-2-(4-fluorophenyl)quinoline] | bind to neurofibrillary tangles specifically and selectively |
| CN(C)c1cccc2nc(-c3ccc(F)cc3)ccc12 [THK-5080, 2-(4-fluorophenyl)-5-dimethylaminoquinoline oxalate] | bind to neurofibrillary tangles specifically and selectively |
| Nc1cccc2ccc(-c3ccc(F)cc3)nc12 [THK-5081, 8-amino-2-(4-fluorophenyl)quinoline] | bind to neurofibrillary tangles specifically and selectively |
| CN(C)c1cccc2ccc(-c3ccc(F)cc3)nc12 [THK-5082, 2-(4-fluorophenyl)-8-dimethylaminoquinoline] | bind to neurofibrillary tangles specifically and selectively |

| SMILES | binding to neurofibrillary tangles in the brain section of Alzheimer's disease patients (staining test) |
| --- | --- |
| Nc1ccc2nc(-c3ccc(F)cc3)ccc2c1 [THK-5086, 6-amino-2-(4-fluorophenyl)quinoline] | bind to neurofibrillary tangles specifically and selectively |
| CN(C)c1ccc2nc(-c3ccc(F)cc3)ccc2c1 [THK-5087, 2-(4-fluorophenyl)-6-dimethylaminoquinoline] | bind to neurofibrillary tangles specifically and selectively |
| CCN(CC)c1ccc2nc(-c3ccc(F)nc3)ccc2c1 [THK-5088, 6-diethylamino-2-(2-fluoropyrid-5-yl)quinoline] | bind to neurofibrillary tangles specifically and selectively |
| CCNc1cccc2nc(-c3ccc(F)nc3)ccc12 [THK-5091, 5-ethylamino-2-(2-fluoropyrid-5-yl)quinoline] | bind to neurofibrillary tangles specifically and selectively |
| CCN(CC)c1cccc2nc(-c3ccc(F)nc3)ccc12 [THK-5092, 5-diethylamino-2-(2-fluoropyrid-5-yl)quinoline] | bind to neurofibrillary tangles specifically and selectively |
| CCN(CC)c1ccc2ccc(-c3ccc(F)nc3)nc2c1 [THK-5097, 7-diethylamino-2-(2-fluoropyrid-5-yl)quinoline] | bind to neurofibrillary tangles specifically and selectively |
| CNc1ccc(-c2ccc3ccc(OCC(O)CF)cc3n2)cc1 (centres unmarked) [THK-5106, 7-[(3-fluoro-2-hydroxy)propoxy]-2-(4-methylaminophenyl)quinoline] | bind to neurofibrillary tangles specifically and selectively |
| CN(C)c1ccc(-c2ccc3ccc(OCC(O)CF)cc3n2)cc1 (centres unmarked) [THK-5107, 7-[(3-fluoro-2-hydroxy)propoxy]-2-(4-dimethylaminophenyl)quinoline] | bind to neurofibrillary tangles specifically and selectively |
| CCN(C)c1ccc(-c2ccc3ccc(OCC(O)CF)cc3n2)cc1 (centres unmarked) [THK-5112, 2-(4-ethylmethylaminophenyl)-7-[(3-fluoro-2-hydroxy)propoxy]quinoline] | bind to neurofibrillary tangles specifically and selectively |
| CN(C)c1ccc2nc(-c3ccc(N)c(F)c3)ccc2c1 [THK-5128, 2-(4-amino-3-fluorophenyl)-6-dimethylaminoquinoline] | bind to neurofibrillary tangles specifically and selectively |
| CN1CCOc2cc(-c3ccc4cc(OCC(O)CF)ccc4n3)cnc21 (centres unmarked) [THK-5136, 6-[(3-fluoro-2-hydroxy)propoxy]-2-(4-methyl-3,4-dihydro-2H-pyrido[3,2-b][1,4]oxazin-7-yl)quinoline] | bind to neurofibrillary tangles specifically and selectively |
| CN1CCCc2cc(-c3ccc4cc(OCC(O)CF)ccc4n3)ccc21 (centres unmarked) [THK-5153, 6-[(3-fluoro-2-hydroxy)propoxy]-2-(1-methyl-1,2,3,4-tetrahydroquinolin-6-yl)quinoline] | bind to neurofibrillary tangles specifically and selectively |
| Nc1ccc2nc(-c3ccc(N)c(OCC(O)CF)c3)ccc2c1 (centres unmarked) [THK-5155, 6-amino-2-[4-(amino)-3-[(3-fluoro-2-hydroxy)propoxy]phenyl]quinoline] | bind to neurofibrillary tangles specifically and selectively |
| CN(C)c1ccc2nc(-c3ccc(N(C)C)c(OCC(O)CF)c3)ccc2c1 (centres unmarked) [THK-5156, 2-[3-[(3-fluoro-2-hydroxy)propoxy]-4-(dimethylamino)phenyl]-6-dimethylaminoquinoline] | bind to neurofibrillary tangles specifically and selectively |
| CN1CCCc2cc(-c3ccc4cc(OC(C)(C)C(O)CF)ccc4n3)ccc21 (centres unmarked) [THK-5157, 6-[(3-fluoro-2-hydroxy-1,1-dimethyl)propoxy]-2-(1-methyl-1,2,3,4-tetrahydroquinolin-6-yl)quinoline] | bind to neurofibrillary tangles specifically and selectively |
| CNc1ccc(-c2ccc3cc(N(C)C)ccc3n2)cc1OCC(O)CF (centres unmarked) [THK-5164, 2-[3-[(3-fluoro-2-hydroxy)propoxy]-4-(methylamino)phenyl]-6-dimethylamino quinoline] | bind to neurofibrillary tangles specifically and selectively |
